Test results: patent publication US10287266B2, “Compounds and compositions for inhibiting the activity of SHP2” (NOVARTIS AG, priority 2015, dated 2019)

These compounds were tested against T1, SHP2 (Homo sapiens, UniProt Q06124) (assay: SHP2 Allosteric Inhibition Assay). Conditions: 0.5 nM SHP2 activated with 0.5 μM peptide IRS1_pY1172(dPEG8)pY1222; surrogate substrate DiFMUP, prompt fluorescence, 25° C.
T1 sequence (Q06124 1-593): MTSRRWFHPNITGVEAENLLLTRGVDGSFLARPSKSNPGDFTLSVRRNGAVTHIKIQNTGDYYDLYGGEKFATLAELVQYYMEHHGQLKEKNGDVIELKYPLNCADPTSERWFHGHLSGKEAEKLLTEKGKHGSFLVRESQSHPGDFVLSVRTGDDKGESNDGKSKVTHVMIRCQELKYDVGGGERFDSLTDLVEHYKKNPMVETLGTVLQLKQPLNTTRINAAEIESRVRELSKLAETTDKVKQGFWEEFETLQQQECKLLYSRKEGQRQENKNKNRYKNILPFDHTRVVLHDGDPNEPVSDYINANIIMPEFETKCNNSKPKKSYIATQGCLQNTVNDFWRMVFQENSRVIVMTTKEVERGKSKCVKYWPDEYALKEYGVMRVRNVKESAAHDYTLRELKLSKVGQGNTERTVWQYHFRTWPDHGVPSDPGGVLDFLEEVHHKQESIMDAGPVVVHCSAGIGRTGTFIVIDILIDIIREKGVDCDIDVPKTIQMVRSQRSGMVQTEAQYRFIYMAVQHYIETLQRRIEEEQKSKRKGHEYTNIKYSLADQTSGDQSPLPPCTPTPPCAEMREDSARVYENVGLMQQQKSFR
Type: biochemical
From the text: SHP2 Allosteric Inhibition Assay
SHP2 is allosterically activated through binding of bis-tyrosyl-phorphorylated peptides to its Src Homology 2 (SH2) domains. The latter activation step leads to the release of the auto-inhibitory interface of SHP2, which in turn renders the SHP2 protein tyrosine phosphatase (PTP) active and available for substrate recognition and reaction catalysis. The catalytic activity of SHP2 was monitored using the surrogate substrate DiFMUP in a prompt fluorescence assay format.
After 30-60 minutes incubation at 25° C., the surrogate substrate DiFMUP (Invitrogen, cat# D6567) was added to the reaction and incubated at 25° C. for 30 minutes. […] The inhibitor dose response curves were analyzed using normalized IC50 regression curve fitting with control based normalization.

Point of comparison: `CC(C)c1ccccc1Sc1cnc(N2CCC3(CCC[C@@H]3N)CC2)cn1` [Example 124], AC50 98 nM. Against it:
- N[C@@H]1CCCC12CCN(c1cnc(Sc3cccc(Cl)c3)cn1)CC2 [Example 77] — 2.8-fold higher, 279 nM
- CC1(CN)CCN(c2cnc(Sc3cccnc3C(F)(F)F)cn2)CC1 [Example 46] — 2.1-fold lower, 47.6 nM
- CC(C)(C)c1cccc(Sc2cnc(N3CCC4(CCC[C@@H]4N)CC3)cn2)c1 [Example 127] — 2.2-fold lower, 44.9 nM
- C[C@@H]1OCC2(CCN(c3cnc(Sc4ccccc4)cn3)CC2)[C@@H]1N [Example 108] — 1.9-fold lower, 52 nM
- C[C@H]1C[C@@H](N)C2(CCN(c3cnc(Sc4ccnc(N)c4Cl)cn3)CC2)C1 [Example 14] — 16-fold lower, 6 nM
- Nc1nccc(Sc2cnc(N3CCC4(CCCCN4)CC3)cn2)c1Cl [Example 8, 4-((5-(1,9-diazaspiro[5.5]undecan-9-yl)pyrazin-2-yl)thio)-3-chloropyridin-2-amine] — 4.4-fold higher, 434 nM
- N[C@@H]1CCCC12CCN(c1cnc(Sc3cccc(F)c3F)cn1)CC2 [Example 75] — within 1.5-fold, 97.7 nM
- N[C@@H]1CCCC12CCN(c1cnc(Sc3ccccc3F)cn1)CC2 [Example 70] — 3.2-fold lower, 30.4 nM
- N[C@@H]1[C@H](O)[C@@H](O)CC12CCN(c1cnc(Sc3ccnc(Cl)c3Cl)cn1)CC2 [Example 55] — 19-fold lower, 5.1 nM
- C[C@@H]1OCC2(CCN(c3cnc(Sc4ccnc(N)c4Cl)cn3)CC2)[C@@H]1N [Example 3, (3S,4S)-8-(5-((2-amino-3-chloropyridin-4-yl)thio)pyrazin-2-yl)-3-methyl-2-oxa-8-azaspiro[4.5]decan-4-amine] — 12-fold lower, 7.9 nM
- CCc1cccc(Sc2cnc(N3CCC4(CCC[C@H]4N)CC3)cn2)c1 [Example 129] — 5.4-fold higher, 526 nM
- N[C@@H]1CCCC12CCN(c1cnc(Sc3c(F)c(F)cc(F)c3F)cn1)CC2 [Example 101] — 26-fold higher, 2510 nM
- NCC1(CO)CCN(c2cnc(Sc3ccnc(N)c3Cl)cn2)CC1 [Example 50] — within 1.5-fold, 70.5 nM
- CC1(N)CCN(c2cnc(Sc3cccnc3C(F)(F)F)cn2)CC1 [Example 6, 4-methyl-1-(5-((2-(trifluoromethyl)pyridin-3-yl)thio)pyrazin-2-yl)piperidin-4-amine] — within 1.5-fold, 127 nM
- CC1(CN)CCN(c2cnc(Sc3ccnc(N)c3Cl)cn2)CC1O (single isomer, unassigned) [Example 39] — 3.5-fold lower, 28.2 nM
- N[C@@H]1CCCC12CCN(c1cnc(Sc3cccnc3)cn1)CC2 [Example 106] — 120-fold higher, 11300 nM
- N[C@@H]1CCCC12CCN(c1cnc(Sc3ccccc3)cn1)CC2 [Example 72] — 1.5-fold lower, 64.6 nM
- CO[C@@H]1C[C@@H](N)C2(CCN(c3cnc(Sc4ccnc(N)c4Cl)cn3)CC2)C1 [Example 43] — 2.3-fold lower, 42.6 nM
- Cc1c(Sc2cnc(N3CCC4(CCC[C@H]4N)CC3)cn2)cccc1C(F)(F)F [Example 98] — 3-fold higher, 293 nM
- Nc1nccc(Sc2cnc(N3CCC4(CCCN4)CC3)cn2)c1Cl [Example 48] — 1.5-fold lower, 63.4 nM
- CC1(CN)CCN(c2cnc(Sc3ccnc(N)c3Cl)cn2)CC1O (single isomer, unassigned) [Example 51] — within 1.5-fold, 72.3 nM
- COc1cccc(Sc2cnc(N3CCC4(CCC[C@H]4N)CC3)cn2)c1 [Example 74] — 2.6-fold lower, 37.6 nM
- Nc1nccc(Sc2cnc(N3CCC4(CCC(CO)[C@H]4N)CC3)cn2)c1Cl (stereo partly drawn) [Example 133] — 6.7-fold lower, 14.6 nM
- CC1(O)C[C@@H](N)C2(CCN(c3cnc(Sc4ccnc(N)c4Cl)cn3)CC2)C1 (stereo partly drawn) [Example 41] — 3.5-fold lower, 28.2 nM
- C[C@@H]1OCC2(CCN(c3cnc(Sc4cccc(O)c4)cn3)CC2)[C@@H]1N [Example 118] — 1.7-fold lower, 57 nM
- N[C@@H]1CCCC12CCN(c1cnc(Sc3ccnc4c3CCC4)cn1)CC2 [Example 97] — 3.3-fold lower, 29.3 nM
- Nc1nccc(Sc2cnc(N3CCC4(CC3)COCCN4)cn2)c1Cl [Example 53] — 2.2-fold higher, 215 nM
- N[C@@H]1CCCC12CCN(c1cnc(Sc3cccc(F)c3Cl)cn1)CC2 [Example 92] — 17-fold lower, 5.77 nM
- N[C@@H]1CCCC12CCN(c1cnc(Sc3cccc(S(F)(F)(F)(F)F)c3)cn1)CC2 [Example 102] — 4.4-fold higher, 436 nM
- CCCC1(CN)CCN(c2cnc(Sc3ccnc(N)c3Cl)cn2)CC1 [Example 31] — 5.6-fold lower, 17.6 nM
- CC(C)C1(CN)CCN(c2cnc(Sc3ccnc(N)c3Cl)cn2)CC1 [Example 32] — 5.5-fold lower, 17.8 nM
- N[C@@H]1CCCC12CCN(c1cnc(Sc3cccc(Cl)c3Cl)cn1)CC2 [Example 107] — within 1.5-fold, 74 nM
- NC1=NC2(CCN(c3cnc(Sc4ccnc(Cl)c4Cl)cn3)CC2)CO1 [Example 4, 8-(5-((2,3-dichloropyridin-4-yl)thio)pyrazin-2-yl)-3-oxa-1,8-diazaspiro[4.5]dec-1-en-2-amine] — 5.6-fold lower, 17.4 nM
- C[C@@H]1OCC2(CCN(c3cnc(Sc4ccncc4F)cn3)CC2)[C@@H]1N [Example 113] — 2.8-fold lower, 34.8 nM
- C[C@@H]1OCC2(CCN(c3cnc(Sc4cccc(CO)c4)cn3)CC2)[C@@H]1N [Example 117] — 2.2-fold lower, 45.1 nM
- CC(=O)c1cccc(Sc2cnc(N3CCC4(CCC[C@H]4N)CC3)cn2)c1 [Example 119] — within 1.5-fold, 138 nM
- CC(C)(C)c1ccccc1Sc1cnc(N2CCC3(CCC[C@H]3N)CC2)cn1 [Example 66] — 15-fold higher, 1460 nM
- C[C@@H]1OCC2(CCN(c3cnc(Sc4ccnc(N)c4Cl)cn3)CC2)[C@@H]1N [Example 115] — 4-fold lower, 24.7 nM
- Nc1cc(Sc2cnc(N3CCC4(CCC[C@H]4N)CC3)cn2)c(Cl)c(Cl)n1 [Example 33] — 5.1-fold lower, 19.3 nM
- N[C@@H]1COCC12CCN(c1cnc(Sc3ccnc(F)c3Cl)cn1)CC2 [Example 34] — 5-fold lower, 19.6 nM
- C[C@H]1OCC2(CCN(c3cnc(Sc4ccnc(N)c4Cl)cn3)CC2)[C@H]1N [Example 58] — 4.6-fold higher, 454 nM
- N[C@@H]1CCCC12CCN(c1cnc(Sc3ccc(OC(F)(F)F)cc3)cn1)CC2 [Example 88] — within 1.5-fold, 82.3 nM
- N[C@@H]1COCC12CCN(c1cnc(Sc3ccncc3C(F)(F)F)cn1)CC2 [Example 49] — within 1.5-fold, 66.1 nM
- N[C@@H]1CCCC12CCN(c1cnc(Sc3ccccc3C(F)(F)F)cn1)CC2 [Example 67] — 9.4-fold higher, 920 nM
- N[C@@H]1CCCC12CCN(c1cnc(Sc3ccc(Br)c(Cl)c3)cn1)CC2 [Example 91] — 6.8-fold higher, 666 nM
- CCc1ccc(Sc2cnc(N3CCC4(CCC[C@@H]4N)CC3)cn2)cc1 [Example 128] — 2.9-fold higher, 287 nM
- Nc1cc(Sc2cnc(N3CCC4(CC3)C[C@H](F)C[C@H]4N)cn2)c(Cl)c(Cl)n1 [Example 61] — within 1.5-fold, 145 nM
- N[C@@H]1CCCC12CCN(c1cnc(Sc3ccc(C(F)(F)F)cc3)cn1)CC2 [Example 87] — 2.4-fold higher, 235 nM
- CCCC1(N)CCN(c2cnc(Sc3ccnc(N)c3Cl)cn2)CC1 [Example 42] — 3.1-fold lower, 31.3 nM
- Nc1nccc(Sc2cnc(N3CCC4(CC3)C[C@H](O)[C@@H](O)[C@H]4N)cn2)c1Cl [Example 57] — 2.2-fold lower, 43.8 nM
- N[C@@H]1CCCC12CCN(c1cnc(Sc3cccc(C(F)(F)F)c3)cn1)CC2 [Example 85] — 1.9-fold lower, 52.8 nM
- Nc1ccccc1Sc1cnc(N2CCC3(CCC[C@H]3N)CC2)cn1 [Example 68] — 9.9-fold higher, 968 nM
- N[C@@H]1COCC12CCN(c1cnc(Sc3ccncc3Cl)cn1)CC2 [Example 23] — 9.4-fold lower, 10.4 nM
- CC(C)CC1(CN)CCN(c2cnc(Sc3ccnc(N)c3Cl)cn2)CC1 [Example 29] — 6.3-fold lower, 15.5 nM
- C[C@@H]1C[C@@H](N)C2(CCN(c3cnc(Sc4ccnc(N)c4Cl)cn3)CC2)C1 [Example 30] — 5.8-fold lower, 17 nM
- C[C@@H]1OCC2(CCN(c3cnc(Sc4ccnc(C(F)(F)F)c4)cn3)CC2)[C@@H]1N [Example 122] — 5.3-fold lower, 18.5 nM
- N[C@@H]1CCCC12CCN(c1cnc(Sc3cccc(CO)c3)cn1)CC2 [Example 81] — 1.8-fold lower, 54.8 nM
- N[C@@H]1CCCC12CCN(c1cnc(Sc3cccc(Br)c3)cn1)CC2 [Example 82] — within 1.5-fold, 81.1 nM
- C[C@@H]1OCC2(CCN(c3cnc(Sc4ccnc(F)c4)cn3)CC2)[C@@H]1N [Example 114] — within 1.5-fold, 120 nM
- N[C@@H]1CCCC12CCN(c1cnc(Sc3ccncc3F)cn1)CC2 [Example 95] — 1.6-fold higher, 159 nM
- N[C@@H]1CCCC12CCN(c1cnc(Sc3cc[nH]c(=O)c3Cl)cn1)CC2 [Example 105] — within 1.5-fold, 78.9 nM
- N#Cc1cccc(Sc2cnc(N3CCC4(CCC[C@H]4N)CC3)cn2)c1 [Example 80] — 2.1-fold higher, 210 nM
- CC(C)c1ccccc1Sc1cnc(N2CCC3(CCC[C@H]3N)CC2)cn1 [Example 63] — 2.2-fold lower, 44.6 nM
- Nc1nccc(Sc2cnc(N3CCC4(CC3)COC[C@H]4N)cn2)c1Cl [Example 16] — 16-fold lower, 6.1 nM
- CC1(O)C[C@@H](N)C2(CCN(c3cnc(Sc4ccnc(N)c4Cl)cn3)CC2)C1 (stereo partly drawn) [Example 26] — 8.5-fold lower, 11.5 nM
- CC1(CN)CCN(c2cnc(Sc3ccnc(N)c3Cl)cn2)CC1 [Example 25] — 9.2-fold lower, 10.7 nM
- N[C@@H]1CCCC12CCN(c1cnc(Sc3cccc(O)c3)cn1)CC2 [Example 78] — 3.1-fold lower, 31.8 nM
- N[C@@H]1CCCC12CCN(c1cnc(Sc3cnnc(O)c3Cl)cn1)CC2 [Example 7, (R)-5-((5-(1-amino-8-azaspiro[4.5]decan-8-yl)pyrazin-2-yl)thio)-4-chloropyridazin-3-ol] — 2.2-fold higher, 213 nM
